The NIST ThermoML archive (doi:10.1016/j.jct.2014.02.009)
± gives the expanded uncertainty stated by the source.

Conditions: 100 kPa, Liquid; for viscosity: Falling or rolling sphere viscometry; for speed of sound: Sing-around technique in a fixed-path interferometer; for mass density: Vibrating tube method

CC(=O)O.O=C1CCCN1 [γ-butyrolactam acetate]
Conditions	mass density [kg/m3]	speed of sound [m/s]	viscosity [mPa·s]
293.15 K	1099.8 ± 2.3	1514.5 ± 3.2	9.36 ± 0.24
298.15 K	1095.35 ± 2.3	1496.7 ± 3.2	7.84 ± 0.2
303.15 K	1090.91 ± 2.3	1480.9 ± 3.2	6.66 ± 0.17
308.15 K	1086.47 ± 2.2	1464 ± 3.2	5.72 ± 0.15
313.15 K	1082.03 ± 2.2	1447.2 ± 3.2	4.96 ± 0.13
318.15 K	1077.57 ± 2.2	1429.3 ± 3.2	4.35 ± 0.11
323.15 K	1073.12 ± 2.2	1412.5 ± 3.2	3.83 ± 0.1
328.15 K	1068.69 ± 2.2	1395.7 ± 3.2	3.4 ± 0.09
333.15 K	1064.24 ± 2.1	1379 ± 3.2	3.06 ± 0.08

O=C1CCCN1.O=CO [γ-butyrolactam formate]
Conditions	mass density [kg/m3]	speed of sound [m/s]	viscosity [mPa·s]
293.15 K	1140.78 ± 2.5	1531.2 ± 3.2	7.17 ± 0.19
298.15 K	1136.14 ± 2.5	1515.7 ± 3.2	6.14 ± 0.16
303.15 K	1131.51 ± 2.5	1500 ± 3.2	5.32 ± 0.14
308.15 K	1126.89 ± 2.4	1484.4 ± 3.2	4.64 ± 0.12
313.15 K	1122.25 ± 2.4	1468.5 ± 3.2	4.09 ± 0.11
318.15 K	1117.61 ± 2.4	1452.9 ± 3.2	3.63 ± 0.09
323.15 K	1112.99 ± 2.4	1437.5 ± 3.2	3.25 ± 0.08
328.15 K	1108.35 ± 2.4	1422.1 ± 3.2	2.92 ± 0.08
333.15 K	1103.72 ± 2.3	1406.8 ± 3.2	2.65 ± 0.07

CCCCCC(=O)O.O=C1CCCN1 [γ-butyrolactam hexanoate]
Conditions	mass density [kg/m3]	speed of sound [m/s]	viscosity [mPa·s]
293.15 K	1018.78 ± 3.5	1429.3 ± 4.2	14.67 ± 0.43
298.15 K	1014.67 ± 3.5	1412.8 ± 4.2	12.13 ± 0.35
303.15 K	1010.57 ± 3.5	1396.2 ± 4.2	10.16 ± 0.3
308.15 K	1006.47 ± 3.4	1379.6 ± 4.2	8.63 ± 0.25
313.15 K	1002.37 ± 3.4	1363.2 ± 4.2	7.4 ± 0.22
318.15 K	998.27 ± 3.4	1346.9 ± 4.2	6.42 ± 0.19
323.15 K	994.17 ± 3.4	1330.7 ± 4.2	5.61 ± 0.16
328.15 K	990.08 ± 3.3	1314.7 ± 4.2	4.94 ± 0.14
333.15 K	985.98 ± 3.3	1298.6 ± 4.2	4.39 ± 0.13

CC(=O)O.O=C1CCCCCN1 [ε-caprolactam acetate]
Conditions	mass density [kg/m3]	speed of sound [m/s]	viscosity [mPa·s]
293.15 K	1060.03 ± 3.8	1523.1 ± 4.2	39.81 ± 1.2
298.15 K	1055.92 ± 3.8	1507 ± 4.2	29.03 ± 0.85
303.15 K	1051.83 ± 3.8	1489.7 ± 4.2	21.92 ± 0.64
308.15 K	1047.74 ± 3.7	1472.8 ± 4.2	17.03 ± 0.5
313.15 K	1043.65 ± 3.7	1456.1 ± 4.2	13.68 ± 0.4
318.15 K	1039.56 ± 3.7	1439.3 ± 4.2	11.1 ± 0.32
323.15 K	1035.46 ± 3.6	1422.6 ± 4.2	9.19 ± 0.27
328.15 K	1031.37 ± 3.6	1406 ± 4.2	7.67 ± 0.22
333.15 K	1027.28 ± 3.6	1389.5 ± 4.2	6.48 ± 0.19

O=C1CCCCCN1.O=CO [ε-caprolactam formate]
Conditions	mass density [kg/m3]	speed of sound [m/s]	viscosity [mPa·s]
293.15 K	1087.05 ± 4	1552 ± 4.2	30.96 ± 0.9
298.15 K	1082.87 ± 4	1536 ± 4.2	23.92 ± 0.7
303.15 K	1078.69 ± 4	1520.2 ± 4.2	18.86 ± 0.55
308.15 K	1074.51 ± 3.9	1504.4 ± 4.2	15.14 ± 0.44
313.15 K	1070.32 ± 3.9	1488.5 ± 4.2	12.36 ± 0.36
318.15 K	1066.13 ± 3.9	1472.8 ± 4.2	10.24 ± 0.3
323.15 K	1061.95 ± 3.9	1457.9 ± 4.2	8.59 ± 0.25
328.15 K	1057.77 ± 3.8	1441.1 ± 4.2	7.3 ± 0.21
333.15 K	1053.59 ± 3.8	1425.1 ± 4.2	6.27 ± 0.18

CCCCCC(=O)O.O=C1CCCCCN1 [ε-caprolactam hexanoate]
Conditions	mass density [kg/m3]	speed of sound [m/s]	viscosity [mPa·s]
293.15 K	998.59 ± 3.4	1472.7 ± 4.2	42 ± 1.2
298.15 K	994.69 ± 3.4	1456 ± 4.2	30.85 ± 0.9
303.15 K	990.78 ± 3.3	1439 ± 4.2	23.4 ± 0.68
308.15 K	986.88 ± 3.3	1421.9 ± 4.2	18.11 ± 0.53
313.15 K	982.97 ± 3.3	1404.8 ± 4.2	14.25 ± 0.42
318.15 K	979.04 ± 3.3	1387.8 ± 4.2	11.59 ± 0.34
323.15 K	975.15 ± 3.2	1370.8 ± 4.2	9.44 ± 0.28
328.15 K	971.24 ± 3.2	1353.4 ± 4.2	7.91 ± 0.23
333.15 K	967.34 ± 3.2	1336.8 ± 4.2	6.64 ± 0.19
